# According to US20180064654A1, “Sheet Packs And Methods For Treating Skin” (ELC Management LLC, priority 2015, published 2018):
# Experiments:
# [1] = test system: PER1 gene expression in skin cells; experiment: PER1 gene expression in skin cells; format: cell-based
# [2] = test system: PER1 gene expression in skin cells; details: "has been shown", no test described; cited from earlier work
# [3] = test system: per1 gene expression in normal human epidermal keratinocytes (NHEK); experiment: per1 promoter luciferase reporter assay in NHEK; format: cell-based
# Method: Perl gene expression in normal human epidermal keratinocytes (NHEK) donors was tested in control cells and cells exposed to ozone using the reporter assay. NHEK were plated at a concentration of 3×10^4 in a black walled, 96 well microtiter plate for 3 hours in EpiLife media. The cells were then transfected in supplement free media with a plasmid that contained luciferase as the reporter gene ligated upstream to a per1 promoter element. In addition, transfection was facilitated by addition of Plus and Lipfectamine reagents (Invitrogen, Carlsbad, Calif.). Transfection in supplement free media was carried out for an additional four hours. This “starves” the cells which in turn causes them to be synchronized in their circadian rhythms. After transfection, full media neat and containing ozone was added and incubated for 16 hours. Then a luciferase reagent, Glo-Bright (Promega Corporation, Madison, Wis.) was added and luminescence measures in an Lmax luminometer (Molecular Devices, Sunnyvale, Calif.).
# The test was performed again, and in addition, a peptide with per1 gene activity was tested.
# In both tests, NHEK were treated at the start of the test (0 hours) so that they were all synchronized with respect to their circadian rhythm, and expressing per1 at the same time. […]
compound,measurement,setting,value
O=C(/C=C/c1ccc(O)c(O)c1)O[C@@H](C(=O)O)[C@@H](O)C(=O)O [caftaric acid],PER1 gene expression,[1],does not increase PER1 gene expression
O=C(/C=C/c1ccc(O)c(O)c1)O[C@@H](C(=O)O)[C@@H](OC(=O)/C=C/c1ccc(O)c(O)c1)C(=O)O [cichoric acid],activation of PER / PER1,[2],suitable activator of PER and PER1
O=[O+][O-] [ozone],per1 gene expression,"[3]; 24 hours, single treatment, compared with untreated cells (FIG. 6)","lesser, and about equivalent, expression of PER1"
same,per1 activity,"[3]; ozone treated NHEK at 0, 6 and 12 hours, vs untreated cells (FIG. 5)",decrease in per1 activity
